Measured values from the supplement of paper PMC10307832.

How the values were obtained:
Assay in all cases: relative viability (nuclei count vs DMSO), 5 days (fraction); higher = more cells survive
VE-821 + Decitabine = compound: CS(=O)(=O)c1ccc(-c2cnc(N)c(C(=O)Nc3ccccc3)n2)cc1 [VE-821] + Nc1ncn([C@H]2C[C@H](O)[C@@H](CO)O2)c(=O)n1 [Decitabine] (partner 2 µM)
In short: (§1)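 Five library-drug doses in √10 steps were combined with a fixed anchor-drug dose, or a single drug was given alone, by pin tool to lung cancer cell lines in 1536-well plates the day after seeding. Nuclei were stained and counted after 5 days. Relative viability is the nuclei count in treated wells over that in vehicle wells, taken as the median of duplicate plates.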

VE-821 + Pemetrexed = compound: CS(=O)(=O)c1ccc(-c2cnc(N)c(C(=O)Nc3ccccc3)n2)cc1 [VE-821] + Nc1nc2[nH]cc(CCc3ccc(C(=O)N[C@@H](CCC(=O)O)C(=O)O)cc3)c2c(=O)[nH]1 [Pemetrexed] (partner 0.2 µM)
In short: as §1

VE-821 + AZD7762 = compound: CS(=O)(=O)c1ccc(-c2cnc(N)c(C(=O)Nc3ccccc3)n2)cc1 [VE-821] + NC(=O)Nc1cc(-c2cccc(F)c2)sc1C(=O)N[C@H]1CCCNC1 [AZD7762] (partner 0.2 µM)
In short: as §1

Ruxolitinib + Trametinib = compound: N#CC[C@H](C1CCCC1)n1cc(-c2ncnc3[nH]ccc23)cn1 [Ruxolitinib] + CC(=O)Nc1cccc(-n2c(=O)n(C3CC3)c(=O)c3c(Nc4ccc(I)cc4F)n(C)c(=O)c(C)c32)c1 [Trametinib] (partner 0.02 µM)
In short: as §1

Cell Line | relative viability (VE-821 + Decitabine; first compound 0.08 µM) | relative viability (VE-821 + Decitabine; first compound 0.253 µM) | relative viability (VE-821 + Decitabine; first compound 0.8 µM) | relative viability (VE-821 + Decitabine; first compound 2.53 µM) | relative viability (VE-821 + Decitabine; first compound 8 µM) | relative viability (VE-821 + Pemetrexed; first compound 0.08 µM) | relative viability (VE-821 + Pemetrexed; first compound 0.253 µM) | relative viability (VE-821 + Pemetrexed; first compound 0.8 µM) | relative viability (VE-821 + Pemetrexed; first compound 2.53 µM) | relative viability (VE-821 + Pemetrexed; first compound 8 µM) | relative viability (VE-821 + AZD7762; first compound 0.08 µM) | relative viability (VE-821 + AZD7762; first compound 0.253 µM) | relative viability (VE-821 + AZD7762; first compound 0.8 µM) | relative viability (VE-821 + AZD7762; first compound 2.53 µM) | relative viability (VE-821 + AZD7762; first compound 8 µM) | relative viability (Ruxolitinib + Trametinib; first compound 0.08 µM) | relative viability (Ruxolitinib + Trametinib; first compound 0.253 µM) | relative viability (Ruxolitinib + Trametinib; first compound 0.8 µM) | relative viability (Ruxolitinib + Trametinib; first compound 2.53 µM) | relative viability (Ruxolitinib + Trametinib; first compound 8 µM)
NCI-H23 | 0.304 | 0.35 | 0.289 | 0.36 | 0.245 | 0.919 | 0.838 | 0.55 | 0.463 | 0.272 | 0.18 | 0.148 | 0.153 | 0.14 | 0.126 | 0.371 | 0.354 | 0.436 | 0.241 | 0.35
NCI-H322M | 0.693 | 0.639 | 0.752 | 0.793 | 0.553 | 0.616 | 0.639 | 0.542 | 0.532 | 0.385 | 0.565 | 0.488 | 0.361 | 0.382 | 0.366 | 0.523 | 0.628 | 0.514 | 0.609 | 0.893
NCI-H358 | 0.22 | 0.279 | 0.278 | 0.278 | 0.273 | 0.177 | 0.199 | 0.177 | 0.166 | 0.122 | 0.627 | 0.603 | 0.447 | 0.41 | 0.293 | 0.144 | 0.12 | 0.138 | 0.0972 | 0.148
NCI-H441 | 0.305 | 0.271 | 0.226 | 0.258 | 0.271 | 0.283 | 0.264 | 0.24 | 0.276 | 0.264 | 1.28 | 0.966 | 0.93 | 0.69 | 0.478 | 0.478 | 0.373 | 0.572 | 0.415 | 0.513
NCI-H460 | 0.554 | 0.543 | 0.366 | 0.276 | 0.0965 | 0.0644 | 0.0622 | 0.0609 | 0.056 | 0.0393 | 0.568 | 0.411 | 0.217 | 0.117 | 0.0688 | 0.195 | 0.161 | 0.151 | 0.0402 | 0.134
NCI-H522 | 0.678 | 0.67 | 0.7 | 0.727 | 0.638 | 1.28 | 1 | 0.909 | 1.16 | 0.778 | 0.888 | 0.707 | 0.787 | 0.962 | 0.767 | 0.729 | 0.767 | 0.964 | 0.678 | 0.708
NCI-H596 | 1.08 | 1.08 | 1.04 | 1.12 | 1.09 | 0.511 | 0.48 | 0.485 | 0.454 | 0.374 | 1.03 | 0.918 | 0.915 | 0.961 | 0.787 | 0.741 | 0.702 | 0.928 | 0.763 | 0.789
NCI-H647 | 0.401 | 0.5 | 0.385 | 0.385 | 0.235 | 0.157 | 0.139 | 0.125 | 0.0986 | 0.0738 | 0.46 | 0.235 |  | 0.217 | 0.0695 | 0.607 | 0.437 | 0.523 | 0.182 | 0.48
NCI-H650 | 0.311 | 0.342 | 0.383 | 0.436 | 0.366 | 0.934 | 0.846 | 1.02 | 0.9 | 0.835 | 0.873 | 0.954 | 0.992 | 0.836 | 1.04 | 0.972 | 1.05 | 0.935 | 0.681 | 0.962
NCI-H838 | 0.461 | 0.488 | 0.564 | 0.559 | 0.456 | 0.259 | 0.264 | 0.21 | 0.17 | 0.159 | 0.944 | 0.859 | 0.771 | 0.727 | 0.692 | 0.554 | 0.44 | 0.477 | 0.217 | 0.185
NCI-H1355 | 0.362 | 0.347 | 0.333 | 0.371 | 0.36 | 1.15 | 0.976 | 0.888 | 1.05 | 0.903 | 0.773 | 0.621 | 0.499 | 0.539 | 0.195 | 0.372 | 0.372 | 0.395 | 0.347 | 0.386
NCI-H1395 | 0.733 | 0.672 | 0.74 | 0.74 | 0.638 | 0.792 | 0.789 | 0.827 | 0.745 | 0.486 | 0.379 | 0.391 | 0.369 | 0.366 | 0.362 | 1.04 | 0.95 | 1.15 | 0.981 | 0.965
NCI-H1437 | 0.579 | 0.488 | 0.593 | 0.598 | 0.497 | 0.331 | 0.316 | 0.281 | 0.173 | 0.187 | 1.13 | 1.12 | 0.956 | 1.11 | 0.514 | 0.528 | 0.632 | 0.732 | 0.564 | 0.455
NCI-H1648 | 0.658 |  | 0.54 | 0.498 | 0.471 | 0.977 |  | 0.569 | 0.63 | 0.611 | 0.582 |  | 0.49 | 0.473 | 0.319 | 0.548 | 0.517 | 0.62 | 0.416 | 0.74
NCI-H1651 | 0.486 | 0.697 | 0.614 | 0.673 | 0.543 | 0.576 | 0.616 | 0.625 | 0.554 | 0.545 | 0.457 | 0.386 | 0.4 | 0.463 | 0.366 | 0.722 | 0.798 | 0.821 | 0.767 | 0.859
NCI-H1666 | 0.698 | 0.702 | 0.786 | 0.753 | 0.688 | 0.941 | 0.841 | 0.779 | 0.558 | 0.571 | 0.753 | 0.705 | 0.798 | 0.705 | 0.713 | 0.834 | 0.87 | 0.871 | 0.76 | 0.881
